From paper PMC11439681, “The identification of potent dual-target monopolar spindle 1 (MPS1) and histone deacetylase 8 (HDAC8) inhibitors through pharmacophore modeling, molecular docking, molecular dynamics simulations, and biological evaluation” (Frontiers in Pharmacology, 2024)

Columns and labels:
SRC = molecular target: T1, SRC (Homo sapiens, UniProt P12931); test: In vitro selectivity assay; assay type: biochemical; conditions: selectivity panel
T1 construct: ICE Bioscience Inc. (contract assay provider)
Description: (§1) The inhibitory effects of compound MPH-5 on a panel of 68 kinases and other histone deacetylases were evaluated to assess the selectivity profile of MPH-5. This experiment was conducted by ICE Bioscience Inc. (Beijing, China).

EPHB3 = molecular target: T2, EPHB3 (Homo sapiens, UniProt P54753); test: In vitro selectivity assay; assay type: biochemical; conditions: selectivity panel
T2 construct: ICE Bioscience Inc. (assay service)
Description: as §1

MET = molecular target: T3, MET (Homo sapiens, UniProt P08581); test: In vitro selectivity assay; assay type: biochemical; conditions: selectivity panel
T3 construct: ICE Bioscience Inc. (contract assay provider)
Description: as §1

ITK = ITK (Homo sapiens, UniProt Q08881); test: In vitro selectivity assay; assay type: biochemical; conditions: selectivity panel
Description: as §1

BTK = molecular target: T4, BTK (Homo sapiens, UniProt Q06187); test: In vitro selectivity assay; assay type: biochemical; conditions: selectivity panel
T4 construct: ICE Bioscience Inc. (assay service)
Description: as §1

NTRK1 = molecular target: T5, NTRK1 (Homo sapiens, UniProt P04629); test: In vitro selectivity assay; assay type: biochemical; conditions: selectivity panel
T5 construct: ICE Bioscience Inc. (contract assay provider)
Description: as §1

BMX = molecular target: T6, BMX (Homo sapiens, UniProt P51813); test: In vitro selectivity assay; assay type: biochemical; conditions: selectivity panel
T6 construct: ICE Bioscience Inc. (assay service)
Description: as §1

FYN = FYN (Homo sapiens, UniProt P06241); test: In vitro selectivity assay; assay type: biochemical; conditions: selectivity panel
Description: as §1

SYK = molecular target: T7, SYK (Homo sapiens, UniProt P43405); test: In vitro selectivity assay; assay type: biochemical; conditions: selectivity panel
T7 construct: ICE Bioscience Inc. (contract assay provider)
Description: as §1

DDR2 = molecular target: T8, DDR2 (Homo sapiens, UniProt Q16832); test: In vitro selectivity assay; assay type: biochemical; conditions: selectivity panel
T8 construct: ICE Bioscience Inc. (assay service)
Description: as §1

EPHB1 = molecular target: T9, EPHB1 (Homo sapiens, UniProt P54762); test: In vitro selectivity assay; assay type: biochemical; conditions: selectivity panel
T9 construct: ICE Bioscience Inc. (assay service)
Description: as §1

FRK = FRK (Homo sapiens, UniProt P42685); test: In vitro selectivity assay; assay type: biochemical; conditions: selectivity panel
Description: as §1

RAF1 = RAF1 (Homo sapiens, UniProt P04049); test: In vitro selectivity assay; assay type: biochemical; conditions: selectivity panel
Description: as §1

AXL = molecular target: T10, AXL (Homo sapiens, UniProt P30530); test: In vitro selectivity assay; assay type: biochemical; conditions: selectivity panel
T10 construct: ICE Bioscience Inc. (assay service)
Description: as §1

JAK2 = JAK2 (Homo sapiens, UniProt O60674); test: In vitro selectivity assay; assay type: biochemical; conditions: selectivity panel
Description: as §1

INSR = INSR (Homo sapiens, UniProt P06213); test: In vitro selectivity assay; assay type: biochemical; conditions: selectivity panel
Description: as §1

CSF1R = molecular target: T11, CSF1R (Homo sapiens, UniProt P07333); test: In vitro selectivity assay; assay type: biochemical; conditions: selectivity panel
T11 construct: ICE Bioscience Inc. (assay service)
Description: as §1

EPHA5 = molecular target: T12, EPHA5 (Homo sapiens, UniProt P54756); test: In vitro selectivity assay; assay type: biochemical; conditions: selectivity panel
T12 construct: ICE Bioscience Inc. (assay service)
Description: as §1

HDAC4 = molecular target: T13, HDAC4 (Homo sapiens, UniProt P56524); test: In vitro selectivity assay; assay type: biochemical; conditions: selectivity panel
T13 construct: ICE Bioscience Inc. (contract assay provider)
Description: as §1

PTK2B = molecular target: T14, PTK2B (Homo sapiens, UniProt Q14289); test: In vitro selectivity assay; assay type: biochemical; conditions: selectivity panel
T14 construct: ICE Bioscience Inc. (contract assay provider)
Description: as §1

ERBB4 = ERBB4 (Homo sapiens, UniProt Q15303); test: In vitro selectivity assay; assay type: biochemical; conditions: selectivity panel
Description: as §1

MERTK = molecular target: T15, MERTK (Homo sapiens, UniProt Q12866); test: In vitro selectivity assay; assay type: biochemical; conditions: selectivity panel
T15 construct: ICE Bioscience Inc. (contract assay provider)
Description: as §1

NTRK2 = molecular target: T16, NTRK2 (Homo sapiens, UniProt Q16620); test: In vitro selectivity assay; assay type: biochemical; conditions: selectivity panel
T16 construct: ICE Bioscience Inc. (contract assay provider)
Description: as §1

FGFR2 = FGFR2 (Homo sapiens, UniProt P21802); test: In vitro selectivity assay; assay type: biochemical; conditions: selectivity panel
Description: as §1

FGFR3 = FGFR3 (Homo sapiens, UniProt P22607); test: In vitro selectivity assay; assay type: biochemical; conditions: selectivity panel
Description: as §1

EPHA6 = molecular target: T17, EPHA6 (Homo sapiens, UniProt Q9UF33); test: In vitro selectivity assay; assay type: biochemical; conditions: selectivity panel
T17 construct: ICE Bioscience Inc. (assay service)
Description: as §1

JAK1 = JAK1 (Homo sapiens, UniProt P23458); test: In vitro selectivity assay; assay type: biochemical; conditions: selectivity panel
Description: as §1

PDGFRB = molecular target: T18, PDGFRB (Homo sapiens, UniProt P09619); test: In vitro selectivity assay; assay type: biochemical; conditions: selectivity panel
T18 construct: ICE Bioscience Inc. (contract assay provider)
Description: as §1

KDR = molecular target: T19, KDR (Homo sapiens, UniProt P35968); test: In vitro selectivity assay; assay type: biochemical; conditions: selectivity panel
T19 construct: ICE Bioscience Inc. (contract assay provider)
Description: as §1

EPHA8 = molecular target: T20, EPHA8 (Homo sapiens, UniProt P29322); test: In vitro selectivity assay; assay type: biochemical; conditions: selectivity panel
T20 construct: ICE Bioscience Inc. (assay service)
Description: as §1

EPHA1 = molecular target: T21, EPHA1 (Homo sapiens, UniProt P21709); test: In vitro selectivity assay; assay type: biochemical; conditions: selectivity panel
T21 construct: ICE Bioscience Inc. (assay service)
Description: as §1

IGF1R = IGF1R (Homo sapiens, UniProt P08069); test: In vitro selectivity assay; assay type: biochemical; conditions: selectivity panel
Description: as §1

HDAC3 = molecular target: T22, HDAC3 (Homo sapiens, UniProt O15379); test: In vitro selectivity assay; assay type: biochemical; conditions: selectivity panel
T22 construct: ICE Bioscience Inc. (contract assay provider)
Description: as §1

ALK = molecular target: T23, ALK (Homo sapiens, UniProt Q9UM73); test: In vitro selectivity assay; assay type: biochemical; conditions: selectivity panel
T23 construct: ICE Bioscience Inc. (assay service)
Description: as §1

EPHA7 = molecular target: T24, EPHA7 (Homo sapiens, UniProt Q15375); test: In vitro selectivity assay; assay type: biochemical; conditions: selectivity panel
T24 construct: ICE Bioscience Inc. (assay service)
Description: as §1

HDAC1 = molecular target: T25, HDAC1 (Homo sapiens, UniProt Q13547); test: In vitro selectivity assay; assay type: biochemical; conditions: selectivity panel
T25 construct: ICE Bioscience Inc. (contract assay provider)
Description: as §1

TYRO3 = TYRO3 (Homo sapiens, UniProt Q06418); test: In vitro selectivity assay; assay type: biochemical; conditions: selectivity panel
Description: as §1

HCK = HCK (Homo sapiens, UniProt P08631); test: In vitro selectivity assay; assay type: biochemical; conditions: selectivity panel
Description: as §1

EPHA2 = molecular target: T26, EPHA2 (Homo sapiens, UniProt P29317); test: In vitro selectivity assay; assay type: biochemical; conditions: selectivity panel
T26 construct: ICE Bioscience Inc. (assay service)
Description: as §1

HepG2 liver cancer cells = test: MTT cytotoxicity assay, HepG2; assay type: cell-based; conditions: Homo sapiens, 72 h cell treatment
Description: The cells (5 × 10^4 cells/well) were incubated overnight in 96-well plates. A series of solutions containing varying concentrations of inhibitors were added and incubated at 37°C for a period of 72 h. Subsequently, the culture medium was removed, followed by a subsequent incubation of the cells with a 5 mg/mL MTT stock solution for 4 h. After centrifugation, the precipitate was solubilized in DMSO and gently shaken for 15 min. Finally, the absorbance measurement at 570 nm was completed using a microplate reader. Data analysis was performed using GraphPad Prism 6.0 software.

Sequence of FGFR3 (P22607 23-806): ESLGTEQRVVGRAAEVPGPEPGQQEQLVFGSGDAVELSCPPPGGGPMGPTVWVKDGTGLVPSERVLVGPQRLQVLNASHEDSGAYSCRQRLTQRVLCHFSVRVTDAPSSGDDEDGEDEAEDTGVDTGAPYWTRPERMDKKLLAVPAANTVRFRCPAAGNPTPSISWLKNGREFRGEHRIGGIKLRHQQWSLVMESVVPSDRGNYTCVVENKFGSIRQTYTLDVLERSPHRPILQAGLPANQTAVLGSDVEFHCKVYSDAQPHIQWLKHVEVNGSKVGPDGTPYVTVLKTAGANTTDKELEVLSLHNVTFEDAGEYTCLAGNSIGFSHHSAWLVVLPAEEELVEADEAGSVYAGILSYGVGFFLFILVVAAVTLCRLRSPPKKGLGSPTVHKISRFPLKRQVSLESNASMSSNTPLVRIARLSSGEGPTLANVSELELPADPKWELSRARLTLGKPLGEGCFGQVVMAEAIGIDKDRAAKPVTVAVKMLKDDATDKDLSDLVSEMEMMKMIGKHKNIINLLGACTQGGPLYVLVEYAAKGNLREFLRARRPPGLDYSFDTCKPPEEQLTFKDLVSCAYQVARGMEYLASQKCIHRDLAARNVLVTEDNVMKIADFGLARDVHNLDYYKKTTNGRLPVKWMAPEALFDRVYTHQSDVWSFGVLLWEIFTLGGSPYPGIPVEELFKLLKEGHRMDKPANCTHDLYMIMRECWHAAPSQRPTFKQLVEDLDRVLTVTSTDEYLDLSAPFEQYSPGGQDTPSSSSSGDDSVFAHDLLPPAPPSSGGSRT
T10 sequence (P30530 26-894): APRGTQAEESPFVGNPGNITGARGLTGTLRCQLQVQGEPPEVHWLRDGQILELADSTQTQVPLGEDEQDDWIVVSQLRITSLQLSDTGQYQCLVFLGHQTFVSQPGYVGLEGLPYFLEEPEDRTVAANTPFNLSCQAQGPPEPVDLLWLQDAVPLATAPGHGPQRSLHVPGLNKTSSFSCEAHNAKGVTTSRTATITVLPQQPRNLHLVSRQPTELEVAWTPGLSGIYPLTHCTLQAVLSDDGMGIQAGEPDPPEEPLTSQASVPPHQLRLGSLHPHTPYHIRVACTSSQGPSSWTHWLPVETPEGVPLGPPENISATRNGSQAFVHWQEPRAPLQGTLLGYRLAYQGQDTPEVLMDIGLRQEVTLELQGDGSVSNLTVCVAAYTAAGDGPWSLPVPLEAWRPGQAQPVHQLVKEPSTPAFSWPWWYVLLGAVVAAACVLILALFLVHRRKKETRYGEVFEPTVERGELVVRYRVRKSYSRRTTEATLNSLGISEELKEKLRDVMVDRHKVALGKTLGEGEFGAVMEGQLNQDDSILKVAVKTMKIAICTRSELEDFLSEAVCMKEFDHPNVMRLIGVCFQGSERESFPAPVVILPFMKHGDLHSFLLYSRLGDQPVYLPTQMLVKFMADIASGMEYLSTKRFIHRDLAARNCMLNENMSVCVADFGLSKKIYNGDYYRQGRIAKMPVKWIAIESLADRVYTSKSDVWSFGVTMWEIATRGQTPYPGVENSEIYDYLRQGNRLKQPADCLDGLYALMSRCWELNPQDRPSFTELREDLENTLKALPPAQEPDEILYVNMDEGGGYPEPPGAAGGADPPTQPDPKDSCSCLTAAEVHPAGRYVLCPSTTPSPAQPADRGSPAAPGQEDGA
Sequence of FYN (P06241 whole entry): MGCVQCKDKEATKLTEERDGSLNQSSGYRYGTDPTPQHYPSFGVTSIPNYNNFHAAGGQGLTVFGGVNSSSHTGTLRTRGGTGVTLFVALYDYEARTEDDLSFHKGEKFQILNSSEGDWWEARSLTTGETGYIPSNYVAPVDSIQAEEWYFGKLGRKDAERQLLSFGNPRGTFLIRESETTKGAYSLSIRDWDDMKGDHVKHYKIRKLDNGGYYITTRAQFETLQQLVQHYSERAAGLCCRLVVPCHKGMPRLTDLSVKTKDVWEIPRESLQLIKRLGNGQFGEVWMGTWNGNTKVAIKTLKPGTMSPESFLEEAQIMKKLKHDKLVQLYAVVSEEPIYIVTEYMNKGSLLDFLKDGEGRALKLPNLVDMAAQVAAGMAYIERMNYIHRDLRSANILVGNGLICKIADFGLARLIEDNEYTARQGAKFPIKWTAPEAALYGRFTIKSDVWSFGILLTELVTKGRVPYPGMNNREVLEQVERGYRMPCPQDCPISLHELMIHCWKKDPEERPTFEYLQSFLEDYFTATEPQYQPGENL
Sequence of FRK (P42685 whole entry): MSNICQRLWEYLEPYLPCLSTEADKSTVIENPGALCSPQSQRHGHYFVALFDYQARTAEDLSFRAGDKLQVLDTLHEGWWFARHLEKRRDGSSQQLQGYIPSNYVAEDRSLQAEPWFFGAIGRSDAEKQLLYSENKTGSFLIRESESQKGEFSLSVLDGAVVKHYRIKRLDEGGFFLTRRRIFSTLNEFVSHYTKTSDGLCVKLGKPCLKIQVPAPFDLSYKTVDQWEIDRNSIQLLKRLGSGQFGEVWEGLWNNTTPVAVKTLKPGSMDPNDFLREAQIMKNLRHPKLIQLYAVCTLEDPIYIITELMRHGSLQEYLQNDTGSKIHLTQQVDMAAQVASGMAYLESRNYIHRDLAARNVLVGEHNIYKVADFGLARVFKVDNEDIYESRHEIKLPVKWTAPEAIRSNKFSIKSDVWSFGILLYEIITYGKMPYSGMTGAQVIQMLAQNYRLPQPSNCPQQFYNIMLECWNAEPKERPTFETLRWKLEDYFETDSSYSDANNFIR
T11 sequence (P07333 20-972): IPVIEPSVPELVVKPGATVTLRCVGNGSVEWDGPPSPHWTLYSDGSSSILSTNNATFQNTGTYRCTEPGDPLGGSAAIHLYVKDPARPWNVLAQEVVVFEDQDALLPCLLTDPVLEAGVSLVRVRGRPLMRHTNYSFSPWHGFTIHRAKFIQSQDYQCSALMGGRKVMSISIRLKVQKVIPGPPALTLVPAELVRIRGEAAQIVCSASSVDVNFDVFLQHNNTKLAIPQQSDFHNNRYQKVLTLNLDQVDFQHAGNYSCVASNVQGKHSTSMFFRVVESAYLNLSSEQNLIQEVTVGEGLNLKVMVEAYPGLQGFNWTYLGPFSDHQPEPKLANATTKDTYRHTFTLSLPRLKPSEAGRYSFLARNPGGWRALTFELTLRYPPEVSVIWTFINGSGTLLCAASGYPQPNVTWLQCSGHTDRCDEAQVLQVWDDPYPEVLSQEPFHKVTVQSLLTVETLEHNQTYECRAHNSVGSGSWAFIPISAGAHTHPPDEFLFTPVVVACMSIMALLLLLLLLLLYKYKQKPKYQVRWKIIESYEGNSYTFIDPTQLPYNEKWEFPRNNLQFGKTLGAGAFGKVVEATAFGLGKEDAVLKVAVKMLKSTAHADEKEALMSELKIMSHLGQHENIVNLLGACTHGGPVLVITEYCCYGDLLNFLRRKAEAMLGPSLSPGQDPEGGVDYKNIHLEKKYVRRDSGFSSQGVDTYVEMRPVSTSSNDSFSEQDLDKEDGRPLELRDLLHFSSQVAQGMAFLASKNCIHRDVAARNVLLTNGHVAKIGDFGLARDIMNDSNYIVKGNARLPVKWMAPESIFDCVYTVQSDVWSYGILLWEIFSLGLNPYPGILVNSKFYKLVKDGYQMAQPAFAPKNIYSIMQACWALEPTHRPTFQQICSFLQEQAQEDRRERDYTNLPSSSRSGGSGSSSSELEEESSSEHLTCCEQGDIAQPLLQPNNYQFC
T16 sequence (Q16620 32-822): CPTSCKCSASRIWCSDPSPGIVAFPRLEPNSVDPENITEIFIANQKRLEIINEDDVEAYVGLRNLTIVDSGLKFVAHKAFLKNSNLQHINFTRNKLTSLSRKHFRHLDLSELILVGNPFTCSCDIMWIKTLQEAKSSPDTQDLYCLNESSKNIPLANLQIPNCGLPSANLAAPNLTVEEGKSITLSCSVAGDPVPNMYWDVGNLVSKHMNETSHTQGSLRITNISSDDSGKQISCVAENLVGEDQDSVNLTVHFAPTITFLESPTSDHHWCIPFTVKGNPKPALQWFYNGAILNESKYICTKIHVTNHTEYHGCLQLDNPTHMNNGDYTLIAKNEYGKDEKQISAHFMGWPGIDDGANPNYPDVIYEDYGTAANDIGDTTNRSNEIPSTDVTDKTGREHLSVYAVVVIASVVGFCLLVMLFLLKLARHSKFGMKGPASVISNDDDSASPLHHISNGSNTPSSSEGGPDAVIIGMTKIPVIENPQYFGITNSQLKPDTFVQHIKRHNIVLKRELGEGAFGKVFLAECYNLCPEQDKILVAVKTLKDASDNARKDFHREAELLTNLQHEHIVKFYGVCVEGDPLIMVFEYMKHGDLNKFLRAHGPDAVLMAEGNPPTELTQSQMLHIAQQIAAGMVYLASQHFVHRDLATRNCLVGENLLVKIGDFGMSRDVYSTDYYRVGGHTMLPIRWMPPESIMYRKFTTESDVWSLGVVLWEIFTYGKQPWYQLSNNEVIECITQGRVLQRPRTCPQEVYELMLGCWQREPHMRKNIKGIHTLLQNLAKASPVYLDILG
T25 sequence (Q13547 whole entry): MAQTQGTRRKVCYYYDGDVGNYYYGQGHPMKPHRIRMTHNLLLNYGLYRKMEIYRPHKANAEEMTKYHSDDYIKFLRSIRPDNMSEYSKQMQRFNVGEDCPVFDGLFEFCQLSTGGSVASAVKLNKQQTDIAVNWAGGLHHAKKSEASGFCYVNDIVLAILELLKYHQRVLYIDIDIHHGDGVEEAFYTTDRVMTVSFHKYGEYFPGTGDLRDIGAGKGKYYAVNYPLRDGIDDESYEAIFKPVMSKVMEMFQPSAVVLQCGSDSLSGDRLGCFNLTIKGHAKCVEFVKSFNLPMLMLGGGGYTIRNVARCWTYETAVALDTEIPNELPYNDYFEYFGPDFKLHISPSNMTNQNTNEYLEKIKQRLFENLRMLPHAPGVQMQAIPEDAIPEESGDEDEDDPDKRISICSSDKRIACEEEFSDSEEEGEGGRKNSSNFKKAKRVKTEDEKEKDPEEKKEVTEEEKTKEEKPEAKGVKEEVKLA

Compound: Cn1cc(-c2cc3cnc(Nc4ccc(-c5cncn5/C=C/C(=O)NO)cc4Cl)cc3n2C(=O)OC(C)(C)C)cn1 [MPH-5]
- IC50 (SRC): > 10 µM
- IC50 (EPHB3): > 10 µM
- IC50 (MET): > 10 µM
- IC50 (ITK): > 10 µM
- IC50 (BTK): > 10 µM
- IC50 (NTRK1): > 10 µM
- IC50 (BMX): > 10 µM
- IC50 (FYN): > 10 µM
- IC50 (SYK): > 10 µM
- IC50 (DDR2): > 10 µM
- IC50 (EPHB1): > 10 µM
- IC50 (FRK): > 10 µM
- IC50 (RAF1): > 10 µM
- IC50 (AXL): > 10 µM
- IC50 (JAK2): > 10 µM
- IC50 (INSR): > 10 µM
- IC50 (CSF1R): > 10 µM
- IC50 (EPHA5): > 10 µM
- IC50 (HDAC4): > 10 µM
- IC50 (PTK2B): > 10 µM
- IC50 (ERBB4): > 10 µM
- IC50 (MERTK): > 10 µM
- IC50 (NTRK2): > 10 µM
- IC50 (FGFR2): > 10 µM
- IC50 (FGFR3): > 10 µM
- IC50 (EPHA6): > 10 µM
- IC50 (JAK1): > 10 µM
- IC50 (PDGFRB): > 10 µM
- IC50 (KDR): > 10 µM
- IC50 (EPHA8): > 10 µM
- IC50 (EPHA1): > 10 µM
- IC50 (IGF1R): > 10 µM
- IC50 (HDAC3): > 10 µM
- IC50 (ALK): > 10 µM
- IC50 (EPHA7): > 10 µM
- IC50 (HDAC1): > 10 µM
- IC50 (TYRO3): > 10 µM
- IC50 (HCK): > 10 µM
- IC50 (EPHA2): > 10 µM
- IC50 (HepG2 liver cancer cells): 0.19 µM
